# From ChEMBL document CHEMBL1124563, “On the structure selectivity problem in drug design. A comparative study of benzylpyrimidine inhibition of vertebrate and bacterial dihydrofolate reductase via molecular graphics and quantitative structure-activity relationships” (J Med Chem, 1989)
# Assays:
# [1] = Partition coefficient (logD) (aqueous phase 0.1 N HCl)
# [2] = Partition coefficient (logD) (0.01 N NaOH); format: physicochemical
# [3] = target: T1, Dihydrofolate reductase (Gallus gallus, UniProt P00378)
# T1 sequence (P00378 whole entry): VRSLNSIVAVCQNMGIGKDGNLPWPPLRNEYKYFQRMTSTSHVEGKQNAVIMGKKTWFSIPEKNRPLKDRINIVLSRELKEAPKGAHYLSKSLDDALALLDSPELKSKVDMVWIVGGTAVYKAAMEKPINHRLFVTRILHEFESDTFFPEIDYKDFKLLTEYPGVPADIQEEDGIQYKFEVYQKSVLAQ
# Description: Inhibitory activity against chicken liver dihydrofolate reductase
# [4] = target: Dihydrofolate reductase (Lactobacillus casei, UniProt P00381)
# Sequence of Dihydrofolate reductase (Lactobacillus casei, UniProt P00381) (P00381 whole entry): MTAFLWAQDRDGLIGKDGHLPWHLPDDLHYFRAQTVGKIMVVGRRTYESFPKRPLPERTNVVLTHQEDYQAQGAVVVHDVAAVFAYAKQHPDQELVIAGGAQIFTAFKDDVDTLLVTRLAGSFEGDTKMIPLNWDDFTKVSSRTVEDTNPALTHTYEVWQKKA
# Description: Inhibitory activity against Lactobacillus casei dihydrofolate reductase
# [5] = Toxic index against Dihydrofolate reductase; format: ADME
Compound,logD ([1]; 0.1 N HCl (aqueous phase)),"logD ([2]; 0.01 N NaOH, read-out: logD)",Ki [3] [µM],Ki [4] [nM],other results
CC(=O)Nc1ccc(Cc2cnc(N)nc2N)cc1[N+](=O)[O-],-2.23,,,,
COc1cccc(Cc2cnc(N)nc2N)c1,,,,,logD ([2]; octanol/water): 1.54
Nc1ccc(Cc2cnc(N)nc2N)cc1,,0.22,,,
Nc1ncc(Cc2ccc(OC(F)(F)F)cc2)c(N)n1,,,47.9,,
CCOc1cc(Cc2cnc(N)nc2N)ccc1OCc1ccccc1,1,,18.2,309,
Nc1ncc(Cc2ccccc2)c(N)n1,,,,,logD ([2]; octanol/water): 1.54
Nc1ncc(Cc2ccc(O)c(O)c2)c(N)n1,2.08,,,,
CCCCOCc1cccc(Cc2cnc(N)nc2N)c1,,2.88,,,
COCCOc1c(Cc2cnc(N)nc2N)ccc(OC)c1OC,-1.81,,229,550,Toxic index [5]: 2.62
Nc1ncc(Cc2cccc(O)c2)c(N)n1,-1.34,,,,
CCCCCCCOc1ccc(Cc2cnc(N)nc2N)cc1,,,,4170,
COCCOc1ccc(Cc2cnc(N)nc2N)cc1OCCOC,,,,,logD ([1]; octanol/water): 1.89
CCc1cc(Cc2cnc(N)nc2N)cc(CO)c1CO,-2.23,,263,195,Toxic index [5]: 3.13
Nc1ncc(Cc2ccc(-c3ccccc3)cc2)c(N)n1,0.98,,5.5,389,
Nc1ncc(Cc2ccc3c(c2)OCO3)c(N)n1,,,20.9,457,
Nc1ncc(Cc2ccc(OCc3ccccc3)cc2)c(N)n1,,,14.8,447,
CCCCCCCCOc1c(OC)cc(Cc2cnc(N)nc2N)cc1OC,,,17,2000,
CCCOc1cc(Cc2cnc(N)nc2N)cc(OCCC)c1,,,74.1,646,
Cc1cc(C)cc(Cc2cnc(N)nc2N)c1,,,,1350,
Nc1ncc(Cc2ccc(O)cc2)c(N)n1,-1.47,,67.6,417,
CCCOc1cc(Cc2cnc(N)nc2N)cc(OCC)c1,,,43.7,589,
CCc1cc(Cc2cnc(N)nc2N)cc(NC(C)=O)c1CO,-2.17,,347,151,Toxicity index [5]: 3.36
CCc1cc(Cc2cnc(N)nc2N)cc(CC)c1CC,,,5.62,132,
C=C(C)c1c(OC)cc(Cc2cnc(N)nc2N)cc1OC,,2.07,67.6,45.7,
CCOc1cc(Cc2cnc(N)nc2N)cc(OCC)c1,,,72.4,389,
CCOc1cc(Cc2cnc(N)nc2N)cc(OCC)c1-n1cccc1 [EPIROPRIM],,,46.8,46.8,

# Continued, in another order:
logD ([1]; 0.1 N HCl (aqueous phase)),"logD ([2]; 0.01 N NaOH, read-out: logD)",Ki [3] [µM],Ki [4] [nM],Compound,other results
,2.66,19.1,316,COc1cc(Cc2cnc(N)nc2N)ccc1OCc1ccccc1,
-0.18,,,79.4,COc1ccc(Cc2cnc(N)nc2N)cc1C(F)(F)F,
,2.44,18.2,123,COc1ccc(Cc2cnc(N)nc2N)cc1OCc1ccccc1,
,0.6,49,324,CS(=O)(=O)Oc1ccc(Cc2cnc(N)nc2N)cc1,
-1.92,,29.5,214,COc1ccc(Cc2cnc(N)nc2N)cc1OS(C)(=O)=O,
,0.74,141,257,COc1ccc(Cc2cnc(N)nc2N)cc1O,
-1.87,,64.6,288,COCCOc1ccc(Cc2cnc(N)nc2N)cc1OC,
2.54,,19.5,316,CCCCCCCCOc1cc(Cc2cnc(N)nc2N)ccc1OC,
,0.6,25.7,363,COc1cc(Cc2cnc(N)nc2N)ccc1OS(C)(=O)=O,
,0.64,49,339,COc1cc(Cc2cnc(N)nc2N)ccc1O,
,,70.8,355,COc1cc(Cc2cnc(N)nc2N)cc(OC)c1N(C)C [ADITOPRIM],
,2.01,,52.5,COc1cc(Cc2cnc(N)nc2N)cc(OC)c1Br [BRODIMOPRIM],
,0.97,,,COc1ccc(Cc2cnc(N)nc2N)cc1OC [DIAVERIDINE],
,1.54,,56.2,COc1cc(Cc2cnc(N)nc2N)cc(OC)c1SC [METIOPRIM],
